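Dose response: 5 concentrations. Exposure: 48 h. Format: 96-well plates. Endpoint: linear interpolation; highest concentration if not reached. GI50: concentration for 50% inhibition of growth. TGI: total growth inhibition.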
Experiments:
Experiment in all cases: inhibition of tumour cell growth, NCI panel, 48 h
K-562 leukemia = test system: K-562 leukemia
COLO 205 colon = test system: COLO 205 colon
SNB-19 CNS = test system: SNB-19 CNS
ACHN renal = test system: ACHN renal
BT-549 breast = test system: BT-549 breast
MALME-3M melanoma = test system: MALME-3M melanoma
MDA-MB-231 breast = test system: MDA-MB-231 breast
SW-620 colon = test system: SW-620 colon
SNB-75 CNS = test system: SNB-75 CNS
SN12C renal = test system: SN12C renal
OVCAR-3 ovarian = test system: OVCAR-3 ovarian
TK-10 renal = test system: TK-10 renal
NCI-H460 lung = test system: NCI-H460 lung
A549 NSCLC = test system: A549 NSCLC
U251 CNS = test system: U251 CNS
HOP-62 NSCLC = test system: HOP-62 NSCLC
DU-145 prostate = test system: DU-145 prostate
UO-31 renal = test system: UO-31 renal
RXF 393 renal = test system: RXF 393 renal
RPMI-8226 leukemia = test system: RPMI-8226 leukemia
T-47D breast = test system: T-47D breast
NCI-H23 lung = test system: NCI-H23 lung
M14 melanoma = test system: M14 melanoma
MDA-MB-435 = test system: MDA-MB-435
HT29 colon = test system: HT29 colon
PC-3 prostate = test system: PC-3 prostate
IGROV1 ovarian = test system: IGROV1 ovarian
MOLT-4 leukemia = test system: MOLT-4 leukemia
HCT-116 colon = test system: HCT-116 colon
HS 578T breast = test system: HS 578T breast
MCF7 breast = test system: MCF7 breast
A498 renal = test system: A498 renal
LOX IMVI melanoma = test system: LOX IMVI melanoma
SF-268 CNS = test system: SF-268 CNS
EKVX NSCLC = test system: EKVX NSCLC
SF-539 CNS = test system: SF-539 CNS
NCI-H522 lung = test system: NCI-H522 lung
SR leukemia = test system: SR leukemia
HCC-2998 colon = test system: HCC-2998 colon
UACC-257 melanoma = test system: UACC-257 melanoma
CCRF-CEM leukemia = test system: CCRF-CEM leukemia
SK-MEL-28 melanoma = test system: SK-MEL-28 melanoma
786-0 renal = test system: 786-0 renal
SK-OV-3 ovarian = test system: SK-OV-3 ovarian
HCT-15 colon = test system: HCT-15 colon
OVCAR-5 ovarian = test system: OVCAR-5 ovarian
KM12 colon = test system: KM12 colon
HL-60(TB) leukemia = test system: HL-60(TB) leukemia
SK-MEL-5 melanoma = test system: SK-MEL-5 melanoma
SF-295 CNS = test system: SF-295 CNS
NCI/ADR-RES ovarian = test system: NCI/ADR-RES ovarian
OVCAR-8 ovarian = test system: OVCAR-8 ovarian
CAKI-1 renal = test system: CAKI-1 renal
OVCAR-4 ovarian = test system: OVCAR-4 ovarian
SK-MEL-2 melanoma = test system: SK-MEL-2 melanoma

O=c1[nH]c2ccccc2nc1-c1c[nH]c2ccccc12
GI50 (K-562 leukemia): > 100 µM | TGI (K-562 leukemia): > 100 µM | GI50 (COLO 205 colon): > 100 µM | TGI (COLO 205 colon): > 100 µM | GI50 (SNB-19 CNS): > 100 µM | TGI (SNB-19 CNS): > 100 µM | GI50 (ACHN renal): > 100 µM | TGI (ACHN renal): > 100 µM | GI50 (BT-549 breast): > 100 µM | TGI (BT-549 breast): > 100 µM | GI50 (MALME-3M melanoma): 39.8 µM | TGI (MALME-3M melanoma): > 100 µM | GI50 (MDA-MB-231 breast): 7.38 µM | TGI (MDA-MB-231 breast): > 100 µM | GI50 (SW-620 colon): > 100 µM | TGI (SW-620 colon): > 100 µM | GI50 (SNB-75 CNS): 2.93 µM | TGI (SNB-75 CNS): > 100 µM | GI50 (SN12C renal): > 100 µM | TGI (SN12C renal): > 100 µM | GI50 (OVCAR-3 ovarian): 9.57 µM | TGI (OVCAR-3 ovarian): > 100 µM | GI50 (TK-10 renal): > 100 µM | TGI (TK-10 renal): > 100 µM | GI50 (NCI-H460 lung): > 100 µM | TGI (NCI-H460 lung): > 100 µM | GI50 (A549 NSCLC): > 100 µM | TGI (A549 NSCLC): > 100 µM | GI50 (U251 CNS): > 100 µM | TGI (U251 CNS): > 100 µM | GI50 (HOP-62 NSCLC): > 100 µM | TGI (HOP-62 NSCLC): > 100 µM | GI50 (DU-145 prostate): > 100 µM | TGI (DU-145 prostate): > 100 µM | GI50 (UO-31 renal): 0.725 µM | TGI (UO-31 renal): > 100 µM | GI50 (RXF 393 renal): 7.41 µM | TGI (RXF 393 renal): > 100 µM | GI50 (RPMI-8226 leukemia): > 100 µM | TGI (RPMI-8226 leukemia): > 100 µM | GI50 (T-47D breast): 8.63 µM | TGI (T-47D breast): > 100 µM | GI50 (NCI-H23 lung): > 100 µM | TGI (NCI-H23 lung): > 100 µM | GI50 (M14 melanoma): > 100 µM | TGI (M14 melanoma): > 100 µM | GI50 (MDA-MB-435): > 100 µM | TGI (MDA-MB-435): > 100 µM | GI50 (HT29 colon): > 100 µM | TGI (HT29 colon): > 100 µM | GI50 (PC-3 prostate): > 100 µM | TGI (PC-3 prostate): > 100 µM | GI50 (IGROV1 ovarian): 1.26 µM | TGI (IGROV1 ovarian): > 100 µM | GI50 (MOLT-4 leukemia): > 100 µM | TGI (MOLT-4 leukemia): > 100 µM | GI50 (HCT-116 colon): > 100 µM | TGI (HCT-116 colon): > 100 µM | GI50 (HS 578T breast): 6.83 µM | TGI (HS 578T breast): > 100 µM | GI50 (MCF7 breast): 93.4 µM | TGI (MCF7 breast): > 100 µM | GI50 (A498 renal): 7.4 µM | TGI (A498 renal): > 100 µM | GI50 (LOX IMVI melanoma): > 100 µM | TGI (LOX IMVI melanoma): > 100 µM | GI50 (SF-268 CNS): > 100 µM | TGI (SF-268 CNS): > 100 µM | GI50 (EKVX NSCLC): 18.8 µM | TGI (EKVX NSCLC): > 100 µM | GI50 (SF-539 CNS): > 100 µM | TGI (SF-539 CNS): > 100 µM | GI50 (NCI-H522 lung): > 100 µM | TGI (NCI-H522 lung): > 100 µM | GI50 (SR leukemia): > 100 µM | TGI (SR leukemia): > 100 µM | GI50 (HCC-2998 colon): > 100 µM | TGI (HCC-2998 colon): > 100 µM | GI50 (UACC-257 melanoma): > 100 µM | TGI (UACC-257 melanoma): > 100 µM | GI50 (CCRF-CEM leukemia): > 100 µM | TGI (CCRF-CEM leukemia): > 100 µM | GI50 (SK-MEL-28 melanoma): > 100 µM | TGI (SK-MEL-28 melanoma): > 100 µM | GI50 (786-0 renal): > 100 µM | TGI (786-0 renal): > 100 µM | GI50 (SK-OV-3 ovarian): > 100 µM | TGI (SK-OV-3 ovarian): > 100 µM | GI50 (HCT-15 colon): > 100 µM | TGI (HCT-15 colon): > 100 µM | GI50 (OVCAR-5 ovarian): > 100 µM | TGI (OVCAR-5 ovarian): > 100 µM | GI50 (KM12 colon): 1.39 µM | TGI (KM12 colon): > 100 µM | GI50 (HL-60(TB) leukemia): > 100 µM | TGI (HL-60(TB) leukemia): > 100 µM | GI50 (SK-MEL-5 melanoma): > 100 µM | TGI (SK-MEL-5 melanoma): > 100 µM | GI50 (SF-295 CNS): 68.2 µM | TGI (SF-295 CNS): > 100 µM | GI50 (NCI/ADR-RES ovarian): > 100 µM | TGI (NCI/ADR-RES ovarian): > 100 µM | GI50 (OVCAR-8 ovarian): > 100 µM | TGI (OVCAR-8 ovarian): > 100 µM | GI50 (CAKI-1 renal): 2.49 µM | TGI (CAKI-1 renal): > 100 µM | GI50 (OVCAR-4 ovarian): > 100 µM | TGI (OVCAR-4 ovarian): > 100 µM | GI50 (SK-MEL-2 melanoma): > 100 µM | TGI (SK-MEL-2 melanoma): > 100 µM

Reference: PubChem BioAssay (NCI)
